From ChEMBL document CHEMBL3045913, “Synthesis and cytotoxicity of novel chrysin derivatives” (Med Chem Res, 2011)

How the values were obtained:
Type in all cases: functional, cell-based
K562 = assay: Cytotoxicity against Homo sapiens (human) K562 cells by MTT assay
DU-145 = assay: Cytotoxicity against Homo sapiens (human) DU145 cells by MTT assay
HCT-116 = assay: Cytotoxicity against Homo sapiens (human) HCT116 cells by MTT assay
SGC-7901 = assay: Cytotoxicity against Homo sapiens (human) SGC7901 cells by MTT assay
HeLa = assay: Cytotoxicity against Homo sapiens (human) HeLa cells by MTT assay

SMILES | IC50 (K562) | IC50 (DU-145) | IC50 (HCT-116) | IC50 (SGC-7901) | IC50 (HeLa)
CC(C)N(CCOc1cc(O)c2c(=O)cc(-c3ccccc3)oc2c1)C(C)C | 27.8 µM | 18.1 µM | 4.6 µM | 7.98 µM | 24.2 µM
O=c1cc(-c2ccccc2)oc2cc(OCCNC3CCCCC3)cc(O)c12 | 1.76 µM | 4.98 µM | 2.95 µM | 6.18 µM | 6.97 µM
O=c1cc(-c2ccccc2)oc2cc(OCCN3CCOCC3)cc(O)c12 | > 100 µM | > 100 µM | > 100 µM | 43 µM | > 100 µM
O=c1cc(-c2ccccc2)oc2cc(OCCN3CCN(c4ccccc4)CC3)cc(O)c12 | > 100 µM | > 100 µM | > 100 µM | > 100 µM | > 100 µM
O=c1cc(-c2ccccc2)oc2cc(OCCn3ccnc3)cc(O)c12 | 27.2 µM | 7.3 µM | 4.2 µM | 5.55 µM | 10.8 µM
Cc1nccn1CCOc1cc(O)c2c(=O)cc(-c3ccccc3)oc2c1 | 10.8 µM | 8.2 µM | 3.2 µM | 7.83 µM | 9.7 µM
O=c1cc(-c2ccccc2)oc2cc(OCCNCCO)cc(O)c12 | 8.31 µM | 5.5 µM | 2.3 µM | 5.05 µM | 4.46 µM
O=c1cc(-c2ccccc2)oc2cc(OCCN(CCO)CCO)cc(O)c12 | 105 µM | > 100 µM | 22.2 µM | 59.2 µM | 86.5 µM
O=c1cc(-c2ccccc2)oc2cc(OCCNc3ccccc3)cc(O)c12 | 31.2 µM | 68.2 µM | 35.5 µM | 69.8 µM | > 100 µM
CNCCOc1cc(O)c2c(=O)cc(-c3ccccc3)oc2c1 | 7.8 µM | 2.95 µM | 2.5 µM | 4.8 µM | 3.72 µM
CC(C)NCCOc1cc(O)c2c(=O)cc(-c3ccccc3)oc2c1 | > 100 µM | > 100 µM | 8.1 µM | > 100 µM | > 100 µM
CCCCNCCOc1cc(O)c2c(=O)cc(-c3ccccc3)oc2c1 | 14.9 µM | 1.85 µM | 2.7 µM | 1.88 µM | 40.9 µM
CC(C)(C)NCCOc1cc(O)c2c(=O)cc(-c3ccccc3)oc2c1 | > 100 µM | 2.75 µM | 1.87 µM | 3.15 µM | 4.92 µM
CN(C)CCOc1cc(O)c2c(=O)cc(-c3ccccc3)oc2c1 | 17.9 µM | 17.7 µM | 6.2 µM | 11 µM | 17.7 µM
O=c1cc(-c2ccccc2)oc2cc(OCCN3CCCCC3)cc(O)c12 | 16.9 µM | 3.17 µM | > 100 µM | 3.1 µM | 1.7 µM
CCCCN(CCCC)CCOc1cc(O)c2c(=O)cc(-c3ccccc3)oc2c1 | 43.4 µM | 44.2 µM | 9.7 µM | 53.3 µM | 13.3 µM
O=c1cc(-c2ccccc2)oc2cc(OCCN3CCNCC3)cc(O)c12 | > 100 µM | 32.5 µM | 32.3 µM | > 100 µM | > 100 µM
CCCNCCOc1cc(O)c2c(=O)cc(-c3ccccc3)oc2c1 | 12.9 µM | 1.4 µM | 1.5 µM | 11.1 µM | 56.6 µM
CN1CCN(CCOc2cc(O)c3c(=O)cc(-c4ccccc4)oc3c2)CC1 | 23.9 µM | 28.7 µM | 18.7 µM | 55.7 µM | 47.4 µM
CCCN(CCC)CCOc1cc(O)c2c(=O)cc(-c3ccccc3)oc2c1 | > 100 µM | 8.4 µM | 38 µM | 23.6 µM | 1.56 µM
CCN(CC)CCOc1cc(O)c2c(=O)cc(-c3ccccc3)oc2c1 | 12.9 µM | 3.17 µM | 9.8 µM | 13.9 µM | 18.8 µM
O=c1cc(-c2ccccc2)oc2cc(O)cc(O)c12 [CHRYSIN] | > 100 µM | 9.81 µM | > 100 µM | > 100 µM | 43 µM
O=c1[nH]cc(F)c(=O)[nH]1 [FLUOROURACIL] |  | 2.95 µM |  | 2.19 µM | 
